Earlier results as cited in PMC9248236 (Nature chemical biology, 2022).

System: IR
Details: competition binding assays, substitution at B24 of insulin

Substance | affinity for IR lower than native PheB24 human insulin
IleB24: human insulin analog with PheB24 substituted by isoleucine (literature) | 2–3 fold
LeuB24: human insulin analog with PheB24 substituted by leucine (literature) | 2–3 fold
